Laboratory results from patent US8030335B2, “Use of liver X receptor agonists” (Laboratoires Fournier S.A., priority 2005, dated 2011).

Legend:
[1] = system: isolated pancreatic islets; assay: Glucose-stimulated insulin secretion in pancreatic islets isolated from treated ZDF rats; assay type: in vivo, rat; settings: islets of ZDF rats treated 10 mg/kg oral for 3 weeks
Protocol: Male ZDF fa/fa and ZDF fa+ rats were obtained from Genetic Models (Indianapolis, Ind.), at the age of 6 weeks and used in the experiments at 12 weeks of age, after 3 weeks of oral treatment with vehicle or GW3965 (10 mg/kg). Compounds were given once daily (at 17 h) via oral gavage. At the time of their use, the ZDF fa/fa rats weighed 310-350 g, whereas the age-matched ZDF fa+ rats weighed 245-285 g. ZDF fa+ and ZDF fa/fa animals had free access to diabetogenic chow (Purina 5008). Animals were housed 5 per cage in a temperature and humidity-controlled room with a 12/12-h light-dark cycle. Blood samples were taken 16 h after compound administration via the tail vein and measured on a Konelab 300 (Labsystem) clinical chemistry analyzer. Rat pancreatic islets were prepared by collagenase digestion and density gradient purification. The enzyme collagenase type XI (Sigma Chemical, St. Louis, Mo.) was used for digestion of the pancreas. After an overnight fast, animals were deeply anesthetized and killed. Then, the pancreatic duct was cannulated, and 20 ml of the digestion solution at 37° C. […] Insulin content was measured in the same islets after an overnight alcohol-acid extraction (Ethanol 75%+HCl 0.15 N). Insulin concentrations in the different media were determined by rat insulin ELISA test (Insulin Rat Elite plus, MERCODIA).

NOD mice = assay: Regeneration of beta cells in NOD mice (pancreatic histology); assay type: in vivo, mouse; settings: NOD mice of 4 weeks old, 50 mg/kg for 4 weeks (5 days/7)
From the text: NOD (non-obese diabetes) mice is an experimental model of spontaneous resembling human Type I (insulin-dependent) diabetes, which results from the progressive islet invasion and beta cells destruction by autoreactive T cells. This spontaneous diabetes model offers a unique opportunity of studying the autoreactive T cells involved in the process of beta cell destruction and of settling preventive strategies before clinical onset of the disease. Non fasted mice were killed two days after the last administration of compounds. Pancreatic glands were excised and processed for conventional histological studies after fixation in Bouin's alcoholic solution. Five μm sections were stained with haematoxylin-eosin as described previously by Thivolet C. H. et al., 1991, Diabetologia, 34, 314-319. NOD mice of 4 weeks old have been treated for 4 weeks (5 days/7) with vehicle or GW3965 at 50 mg/kg. Pancreatic histological studies have been carried out as described above.

pancreatic islets = assay: Number of harvested pancreatic islets in treated ZDF rats; assay type: in vivo, rat; settings: 10 mg/kg oral for 3 weeks, vehicle 51±13, fa+ 120±28, mean±SEM
Protocol: Male ZDF fa/fa and ZDF fa+ rats were obtained from Genetic Models (Indianapolis, Ind.), at the age of 6 weeks and used in the experiments at 12 weeks of age, after 3 weeks of oral treatment with vehicle or GW3965 (10 mg/kg). Compounds were given once daily (at 17 h) via oral gavage. At the time of their use, the ZDF fa/fa rats weighed 310-350 g, whereas the age-matched ZDF fa+ rats weighed 245-285 g. ZDF fa+ and ZDF fa/fa animals had free access to diabetogenic chow (Purina 5008). Animals were housed 5 per cage in a temperature and humidity-controlled room with a 12/12-h light-dark cycle. Blood samples were taken 16 h after compound administration via the tail vein and measured on a Konelab 300 (Labsystem) clinical chemistry analyzer. Rat pancreatic islets were prepared by collagenase digestion and density gradient purification. The enzyme collagenase type XI (Sigma Chemical, St. Louis, Mo.) was used for digestion of the pancreas. After an overnight fast, animals were deeply anesthetized and killed. Then, the pancreatic duct was cannulated, and 20 ml of the digestion solution at 37° C. (collagenase 30 mg/ml dissolved in 20 ml Hanks' balanced salt solution [HBSS]) (Sigma Chemical, St. Louis, Mo.) was slowly injected to distend the tissue. […]

O=C(O)Cc1cccc(OCCCN(Cc2cccc(C(F)(F)F)c2Cl)CC(c2ccccc2)c2ccccc2)c1 [GW3965]
increase of insulin secretion vs vehicle-treated ZDF rat islets ([1]; 3.3 mmol/l glucose): 133.8% | increase of insulin secretion vs vehicle-treated ZDF rat islets ([1]; 16.7 mmol/l glucose): 74.5% | regeneration of beta cells (formation of new islets) (NOD mice): formation of new islets | number of harvested pancreatic islets (pancreatic islets): 80±16 islets/rat
